Patent US8287918B2, “Medicament for treating lung cancer” (Dainippon Sumitomo Pharma Co., Ltd., priority 2001, dated 2012)
Counter-ions that a name gives are not always drawn. Like-named read-outs stand apart in the source and are kept apart here.

Tests used:
[1] = system: Human small cell lung cancer LX-1 cell strain; experiment: Antitumor activity against subcutaneously transplanted LX-1 tumor in nude mice; type: in vivo; conditions: single agent at maximum tolerated dose (amrubicin hydrochloride 25 mg/kg; cisplatin 10 mg/kg), single intravenous administration, measured for 23 days
Experimental: Human small cell lung cancer LX-1 cell strain was subcutaneously transplanted to nude mice (80 animals) at 5 weeks of age. After 15 days from the tumor transplantation, 36 animals having a tumor volume of about 200 to 500 mm^3 were allotted to 6 groups consisting of 6 animals per group. On the same day, the animals received intravenous administration, respectively, of physiological saline for “vehicle group”, the maximum tolerated dose of amrubicin hydrochloride (25 mg/kg) for “an amrubicin hydrochloride alone administration group”, the maximum tolerated dose of cisplatin (10 mg/kg) for “cisplatin alone administration group”, 0.5 times of the maximum tolerated dose of amrubicin hydrochloride and 0.5 times of the maximum tolerated dose of cisplatin for “combined administration group (0.5×MTD)”, 0.8 times of the maximum tolerated dose of amrubicin hydrochloride and 0.8 times of the maximum tolerated dose of cisplatin for “combined administration group (0.8×MTD)”, the maximum tolerated dose of amrubicin hydrochloride and the maximum tolerated dose of cisplatin for “combined administration group (1×MTD)”. Thereafter, tumor volume and body weight of the mice were measured for 23 days. […]
The minimum T/C % was calculated as follows: […]

[2] = humans, cited from earlier work
[3] = rabbit chronic experimental model; Invest. New Drug, 15, 219-225 (1997); cited from earlier work
tumor cells = conditions: Cancer Chemothr. Pharmacol., 30, 51-57 (1992); cited from earlier work

## CC(=O)[C@]1(N)Cc2c(O)c3c(c(O)c2[C@@H](OC2CC(O)C(O)CO2)C1)C(=O)c1ccccc1C3=O (stereo partly shown) [amrubicin hydrochloride]
[1]
  Minimum T/C %: 55%
[2]; administration in 3 continuous days
  maximum tolerated dose: 50 mg/m^2 per day
[2]; once a day single dose
  maximum tolerated dose: 130 mg/m^2

## CC(=O)[C@]1(N)Cc2c(O)c3c(c(O)c2[C@@H](O[C@H]2C[C@H](O)[C@H](O)CO2)C1)C(=O)c1ccccc1C3=O [amrubicin, (+)-(7S,9S)-9-acetyl-9-amino-7-[(2-deoxy-β-D-erythro-pentopyranosyl)oxy]-7,8,9,10-tetrahydro-6,11-dihydroxy-5,12-naphthacenedione]
[3]
  cardiac toxicity compared with doxorubicin: far weaker than doxorubicin

## CC(O)[C@]1(N)Cc2c(O)c3c(c(O)c2[C@@H](O[C@H]2C[C@H](O)[C@H](O)CO2)C1)C(=O)c1ccccc1C3=O (stereo partly shown) [amrubicinol]
Tumor cells
  inhibitory activity against growth of tumor cells compared with amrubicin: considerably stronger

## N.N.[Cl][Pt][Cl] [cisplatin, cis-diammin dichloroplatinum]
[1]
  Minimum T/C %: 68%
[2]
  maximum tolerated dose: 90 mg/m^2
